Assay results published in US20020193587A1, “Penicillin crystal and process for producing the same” (priority 2000, published 2002).

Assay: Storage stability in sealed test tubes at room temperature for 1 year, purity determined by HPLC
Assay type: physicochemical
Settings: 10 g in sealed test tube, stored at room temperature (5 to 35° C.) for 1 year, starting purity 100% (Examples 1, 2), 79% (Comparative Example 1), 93% (Comparative Example 2)
Protocol: A test tube was charged with 10 g of each of the TAZB crystal of Example 1 (purity 100%), the TAZB crystal of Example 2 (purity 100%), the TAZB oily substance of Comparative Example 1 (purity 79%), and the TAZB amorphous powder of Comparative Example 2 (purity 93%). The test tubes were sealed and stored at room temperature (5 to 35° C.) for 1 year after which their purity was determined by HPLC.
A purity after storage of 52% was found for “diphenylmethyl 2-methyl-2-triazolylmethylpenam-3-carboxylate 1,1-dioxide [Comparative Example 1]” in this work.
A purity after storage of 81% was found for “diphenylmethyl 2-methyl-2-triazolylmethylpenam-3-carboxylate 1,1-dioxide [Comparative Example 2]” in this work.
A purity after storage of 99% was found for “diphenylmethyl 2-methyl-2-triazolylmethylpenam-3-carboxylate 1,1-dioxide [Example 2]” in this work.
